Data published in patent US5622933A, “Multiple branch peptide constructions for use against HIV” (priority 1993, dated 1997).
“And” between values parts separate entries of the source, which are not always exact repeats. Equal values may be shown once. Read-outs that look alike come from different tables or passages of the source. Ends that are not written are not given here.

Tests used:
HIV-1 (IIIB) = assay type: cell-based; conditions: for number of syncytia (HIV-1 induced cell fusion): 24 hours
Excerpt: 50×10^3 8E5 cells chronically infected with a RT-deficient HIV-I (IIIB) isolate, were co-cultivated with 150×10^3 phytohemagglutinin (PHA) stimulated human peripheral blood lymphocytes (PBLs) in the presence of the indicated peptide in 96-well plates. The MBPCs used are described by the peptides attached, and the number thereof, to a core lysine matrix, which is designated HLC. All amino acids used for this experiment were in dextro form.

8E5 cells = assay: Toxicity in the cell fusion test (MTT assay or trypan blue exclusion); assay type: cell-based; conditions: 5 × 10^-5 M
HIV-1 (89.6) = assay: Infection of and syncytia formation in human primary macrophages; assay type: cell-based; conditions: 5×10^-5 M; 10,000 TCID50
Method: MBPCs were also evaluated for their ability to block the infection of human primary macrophages by a highly cytopathic macrophage-tropic isolate, HIV-1 (89.6). Mononuclear cells were isolated from leukophoresis units enriched for monocytes by Ficoll-Hypaque density separation. Macrophages were purified by adherence to plastic in RPMI 1640 supplemented with 10% fetal calf serum and 5% human AB serum. […] 5×10^5 cells were treated for 45 minutes with the indicated MBPC at concentrations of 5×10^-5 M and subsequently exposed to 10,000 TCID50 of the macrophage-tropic isolate HIV (89.6). […] After thorough washing, the cells were fed again with medium and analyzed for HIV-1 p24^gag production and syncytia formation 4 days post-infection.

HIV-1Lai = assay: Syncytia formation blockage (chronically infected cells + uninfected Molt-4 cells); assay type: cell-based; set-up: key: -: The presence of syncytia is indicated by + signs, allocated in approximate proportion to the quantities counted; The presence of syncytia is indicated by + signs, allocated in approximate proportion to the quantities counted; ++: The presence of syncytia is indicated by + signs, allocated in approximate proportion to the quantities counted; +++: The presence of syncytia is indicated by + signs, allocated in approximate proportion to the quantities counted; ++++: The presence of syncytia is indicated by + signs, allocated in approximate proportion to the quantities counted
Method: (§1) CEM or C8166 cells were chronically infected with HIV-1 Lai or HIV-2 Rod, or HIV-1MN, respectively. Infected cells (1×10^4) were incubated for 2 hours with various concentrations of MBPCs in 96-well plates. Uninfected Molt-4 cells (4×10^4) were then added in […]. Syncytia were counted after 18 hours at 37° C.

HIV-2Rod = assay: as above; assay type: cell-based; set-up: key: -: The presence of syncytia is indicated by + signs, allocated in approximate proportion to the quantities counted; The presence of syncytia is indicated by + signs, allocated in approximate proportion to the quantities counted; ++: The presence of syncytia is indicated by + signs, allocated in approximate proportion to the quantities counted; +++: The presence of syncytia is indicated by + signs, allocated in approximate proportion to the quantities counted; ++++: The presence of syncytia is indicated by + signs, allocated in approximate proportion to the quantities counted
Method: as §1

HIV-1MN = assay: as above; assay type: cell-based; set-up: key: -: The presence of syncytia is indicated by + signs, allocated in approximate proportion to the quantities counted; The presence of syncytia is indicated by + signs, allocated in approximate proportion to the quantities counted; ++: The presence of syncytia is indicated by + signs, allocated in approximate proportion to the quantities counted; +++: The presence of syncytia is indicated by + signs, allocated in approximate proportion to the quantities counted; ++++: The presence of syncytia is indicated by + signs, allocated in approximate proportion to the quantities counted
Method: as §1

C57/BL6 black mice = assay: Immunogenicity in mice (serum ELISA for anti-MBPC3 antibody); assay type: in vivo, mouse; conditions: coat GPGRAF monomer 10 μg/ml, listed as Mo
Method: The injection route was intraperitoneal. The blood samples were collected by sub-orbital eye punction. The blood samples were left for 1 hour at 37° C., then overnight at 4° C., and the supernatants (serum samples) thus obtained were separated from the pellets. Sera were tested by ELISA, looking for specific anti-MBPC3 antibody.
(§2) […] After saturation with 400 μL of casein (5 g/100 ml), different serum dilutions were added for 2 hours at 37° C. The controls were sera from non-immunized rabbits and mice. After rinsing (5×), 50 μl of 1:5000 of peroxidase-labeled swine anti-rabbit IgG or anti-mouse IgG (Dakopatts, Copenhagen, Denmark) were added for 1 hour at 37° C. After further rinsing (5×), 100 μl of ortho-phenylenediamine were added for 30 min in the dark at room temperature. The reaction was stopped by adding 50 μl of 4N sulfuric acid, and optical density (OD) ratios were determined at 492/620 nm.

New Zealand rabbits = assay: Immunogenicity in rabbits (serum ELISA for anti MBPC.3 antibodies); assay type: in vivo, rabbit; conditions: coat GPGRAF monomer 10 μg/ml
Method: […] This procedure was repeated subcutaneously with incomplete Freud's adjuvant on days 30, 60, 90 and 120. Sera were tested by ELISA, looking for specific anti MBPC.3 antibodies. Data presented here is from the last serum samples (120+7 days).
as §2

“[RKSIHKGPGRAFYT]4 -MLC (also: tetrameric multibranched MLC construct)” was tested, and the “number of syncytia (HIV-1 induced cell fusion)” value (from here on “number of syncytia”) (HIV-1 (IIIB); 5 × 10^-6 M) was “- (- indicates the total absence of syncytia in the well)”, the “number of syncytia” value (HIV-1 (IIIB); 5 × 10^-7 M) was “+++” and the Toxicity (8E5 cells) was “Toxic”.
In the case of “[RKSIHTGPGRAFYT]4 -MLC (also: tetrameric multibranched MLC construct)”, the “number of syncytia” value (HIV-1 (IIIB); 5 × 10^-6 M) is reported as “- (- indicates the total absence of syncytia in the well)”, the “number of syncytia” value (HIV-1 (IIIB); 5 × 10^-7 M) is reported as “+++” and the Toxicity (8E5 cells) is reported as “Toxic”.
[GPGR]8 -MLC was tested, and the “inhibition of syncytia formation / cell fusion, in words” value (HIV-1 (IIIB)) was “did not inhibit cell fusion”, the “number of syncytia” value (HIV-1 (IIIB); 5 × 10^-5 M) was “+++” and the “number of syncytia” value (HIV-1 (IIIB); 5 × 10^-6 M) was “+++”. The “number of syncytia” value (HIV-1 (IIIB); 5 × 10^-7 M) was “+++”.
In the case of [GPG(R)D AF]8 -MLC, the “number of syncytia” value (HIV-1 (IIIB); 5 × 10^-6 M) is reported as “- (- indicates the total absence of syncytia in the well)”, the “number of syncytia” value (HIV-1 (IIIB); 5 × 10^-7 M) is reported as “+++” and the “inhibition of macrophage infection, in words” value (HIV-1 (89.6)) is reported as “significantly less active than [GPGRAF]8 -MLC”.
In the case of “(IGPGRAF)4 -(K)2 -K-βA-OH (also: four copies on lysine core (K)2-K-βA-OH) [MBPC.4]”, the Syncytia formation (HIV-1Lai; MBPC Conc. 5 × 10^-6 M) is reported as “+++”, the Syncytia formation (HIV-1Lai; MBPC Conc. 10^-6 M) is reported as “++++” and the Syncytia formation (HIV-1Lai; MBPC Conc. 10^-7 M) is reported as “++++”. For the same substance, the Syncytia formation (HIV-2Rod; MBPC Conc. 5 × 10^-6 M) was “++++”, the Syncytia formation (HIV-2Rod; MBPC Conc. 10^-6 M) was “++++” and the Syncytia formation (HIV-2Rod; MBPC Conc. 10^-7 M) was “++++”. For the same substance, the Syncytia formation (HIV-1MN; MBPC Conc. 5 × 10^-6 M) was “++++”, the Syncytia formation (HIV-1MN; MBPC Conc. 10^-6 M) was “++++” and the Syncytia formation (HIV-1MN; MBPC Conc. 10^-7 M) was “+++”.
In the case of “[IGPGRAF]8 -MLC (also: octameric multibranched MLC construct)”, the “inhibition of syncytia formation / cell fusion, in words” value (HIV-1 (IIIB)) is reported as “significant loss of activity”, the “number of syncytia” value (HIV-1 (IIIB); 5 × 10^-5 M) is reported as “- (- indicates the total absence of syncytia in the well)” and the “number of syncytia” value (HIV-1 (IIIB); 5 × 10^-6 M) is reported as “±”. The “number of syncytia” value (HIV-1 (IIIB); 5 × 10^-7 M) was “+++”.
For “RAFVTIGK [RAFVTIGK (SEQ ID NO:6), reference compound]”, the “number of syncytia” value (HIV-1 (IIIB); 5 × 10^-5 M) was “- (- indicates the total absence of syncytia in the well)”, the “number of syncytia” value (HIV-1 (IIIB); 5 × 10^-6 M) was “+++” and the “number of syncytia” value (HIV-1 (IIIB); 5 × 10^-7 M) was “+++”.
For “[Ac-GPGRAF]8 -MLC (also: eight copies on MLC (multibranched lysine core)) [N-terminal acetylation]”, the “inhibition of syncytia formation / cell fusion, in words” value (HIV-1 (IIIB)) was “significant loss of activity”, the “number of syncytia” value (HIV-1 (IIIB); 5 × 10^-5 M) was “- (- indicates the total absence of syncytia in the well)” and the “number of syncytia” value (HIV-1 (IIIB); 5 × 10^-6 M) was “+++”. The “number of syncytia” value (HIV-1 (IIIB); 5 × 10^-7 M) was “+++”.
[GPGRAF]8 -MLCD was tested, and the “number of syncytia” value (HIV-1 (IIIB); 5 × 10^-5 M) was “+++”, the “number of syncytia” value (HIV-1 (IIIB); 5 × 10^-6 M) was “+++” and the “number of syncytia” value (HIV-1 (IIIB); 5 × 10^-7 M) was “+++”. For the same substance, the “inhibition of macrophage infection, in words” value (HIV-1 (89.6)) was “significantly less active than [GPGRAF]8 -MLC”.
For [GPGRA]8 -MLC, the “inhibition of syncytia formation / cell fusion, in words” value (HIV-1 (IIIB)) was “did not inhibit cell fusion”, the “number of syncytia” value (HIV-1 (IIIB); 5 × 10^-5 M) was “+++” and the “number of syncytia” value (HIV-1 (IIIB); 5 × 10^-6 M) was “+++”. The “number of syncytia” value (HIV-1 (IIIB); 5 × 10^-7 M) was “+++”.
“GPGRAF [Mono.3, GPGRAF, reference compound]” was tested, and the “optical density (OD) ratio 492/620 nm (×10^3)” value (C57/BL6 black mice; plate 1, mouse serum 10^-2) was 1224 and 1135, the “optical density (OD) ratio 492/620 nm (×10^3)” value (C57/BL6 black mice; plate 1, mouse serum 10^-3) was 310 and 287 and the “optical density (OD) ratio 492/620 nm (×10^3)” value (C57/BL6 black mice; plate 1, mouse serum 10^-4) was 104 and 185. For the same substance, the “optical density (OD) ratio 492/620 nm (×10^3)” value (C57/BL6 black mice; plate 2, mouse serum 10^-2) was 1539 and 1575, the “optical density (OD) ratio 492/620 nm (×10^3)” value (C57/BL6 black mice; plate 2, mouse serum 10^-3) was 342 and 335 and the “optical density (OD) ratio 492/620 nm (×10^3)” value (C57/BL6 black mice; plate 2, mouse serum 10^-4) was 95 and 126. The “optical density (OD) ratio 492/620 nm (×10^3)” value (C57/BL6 black mice; plate 4, mouse serum 10^-2) was 1231 and 1317, the “optical density (OD) ratio 492/620 nm (×10^3)” value (C57/BL6 black mice; plate 4, mouse serum 10^-3) was 380 and 386 and the “optical density (OD) ratio 492/620 nm (×10^3)” value (C57/BL6 black mice; plate 4, mouse serum 10^-4) was 123 and 122. The “optical density (OD) ratio 492/620 nm (×10^3)” value (New Zealand rabbits; plate 1, rabbit serum 10^-2) was 2000, the “optical density (OD) ratio 492/620 nm (×10^3)” value (New Zealand rabbits; plate 1, rabbit serum 10^-3) was 2000 and the “optical density (OD) ratio 492/620 nm (×10^3)” value (New Zealand rabbits; plate 1, rabbit serum 10^-4, listed as Mo) was 677 and 725. For the same substance, the “optical density (OD) ratio 492/620 nm (×10^3)” value (New Zealand rabbits; plate 2, rabbit serum 10^-2) was 2000, the “optical density (OD) ratio 492/620 nm (×10^3)” value (New Zealand rabbits; plate 2, rabbit serum 10^-3, listed as Mo) was 2000 and 1909 and the “optical density (OD) ratio 492/620 nm (×10^3)” value (New Zealand rabbits; plate 2, rabbit serum 10^-4, listed as Mo) was 588 and 625. For the same substance, the “optical density (OD) ratio 492/620 nm (×10^3)” value (New Zealand rabbits; plate 4, rabbit serum 10^-2) was 811 and the “optical density (OD) ratio 492/620 nm (×10^3)” value (New Zealand rabbits; plate 4, rabbit serum 10^-3, listed as Mo) was 245 and 194.
